These results are taken from PubChem BioAssay (NCI).

Assay in all cases: growth of human tumour cells (NCI), 48 h
Experiment [1] has as its system HCT-15 colon.
Experiment [2] relates to UO-31 renal.
The subject of experiment [3] is UACC-257 melanoma.
In experiment [4] the test system is KM12 colon.
In experiment [5] the test system is SNB-19 CNS.
The test system of experiment [6] is T-47D breast.
For experiment [7], the system named is MOLT-4 leukemia.
The test system of experiment [8] is 786-0 renal.
For experiment [9], the system named is MDA-N.
The subject of experiment [10] is OVCAR-5 ovarian.
Experiment [11] deals with NCI-H460 lung.
For experiment [12], the system named is MCF7 breast.

The structures appear in SMILES notation.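 1) Cells in 96-well plates. 2) Compound, 48 h, 5 concentrations. 3) Linear interpolation between surrounding doses. 4) Unreached endpoint = highest concentration. TGI marks complete inhibition of growth.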 Some results are limits rather than exact numbers.

For the compound `CC1(C)CCc2c(c(N=Nc3ccc(F)cc3)c3ccccc3c2O)O1`, the TGI was over 100 µM in [1]; over 100 µM in experiment [2]; 41.1 µM in [3]; over 100 µM in experiment [4]; over 100 µM in experiment [5]; 86.8 µM in [6]. The TGI in [7] is over 100 µM; in experiment [8], over 100 µM; in experiment [9], 31.5 µM; in experiment [10] it was over 100 µM; in experiment [11] it was 63.4 µM; in experiment [12], over 100 µM.
Consider `CCN1CCC(O)(/C=C/c2ccc(C(C)C)cc2)C(C(=O)/C=C/c2ccc(C(C)C)cc2)C1` (stereo not drawn), for which the TGI is 4.63 µM in [1]; 7.88 µM in [2]; 19.4 µM in experiment [3]; 4.87 µM in [4]; 15.5 µM in experiment [5]; 6.19 µM in [6]. Moreover, the TGI in [7] amounted to 5.18 µM; in experiment [8], 3.4 µM; in experiment [9] it was 5 µM; in [10], 12 µM; in experiment [11], 3.35 µM; in experiment [12], 14 µM.
In the case of `C=CCn1c(-c2ccc([N+](=O)[O-])cc2)csc1=N`, the TGI in [1], in experiment [2], in experiment [3], in experiment [4], in [5] and in [6] was over 100 µM in each case. Also, the TGI in [8], in experiment [9], in [10], in experiment [11] and in experiment [12] was over 100 µM each time.
As for `C[C@H]1COC2=C1C(=O)C(=O)c1c2ccc2c1CCCC2(C)C`, the TGI in experiment [1] is 18.6 µM; in experiment [2], 14.3 µM; in experiment [3], 6.46 µM; in [4], 37 µM; in experiment [5] it was 66.4 µM; in [6] it was over 100 µM. In addition, the TGI in experiment [7] is over 56.2 µM; in [8], 35.2 µM; in experiment [9] it was 3.26 µM; in experiment [10], over 91.4 µM; in experiment [11] it was over 34.5 µM; in experiment [12], 7.88 µM.
As to `OC(CC(O)(C(F)(F)F)C(F)(F)F)c1ccc(C(O)CC(O)(C(F)(F)F)C(F)(F)F)cc1` (stereo not drawn), the TGI in [1] was found to be 42.8 µM; in experiment [2], 23 µM; in experiment [3], 32.2 µM; in [5], 30.9 µM; in experiment [6], 31.3 µM; in experiment [7], 35.8 µM. In addition, the TGI in experiment [8] worked out at 34.9 µM; in experiment [9] it was 35.4 µM; in experiment [10], 31.1 µM; in experiment [11], 31.6 µM.
For `O=C(O)CCC(NC(=O)c1ccc(Nc2nc3cc(C(F)(F)F)ccc3nc2C(=O)O)cc1)C(=O)O` (stereo not drawn), the TGI in experiment [1], in experiment [2], in experiment [3], in [4], in experiment [5] and in experiment [6] was over 100 µM each time. Besides, the TGI in experiment [7], in experiment [8], in experiment [9], in [10], in experiment [11] and in experiment [12] was over 100 µM each time.
As to `CCOC(=O)[C@@H]1ON2OC(OC3CCCC3(c3ccccc3)c3ccccc3)C(OC(C)=O)[C@H]3OC(=O)[C@@H]1C32` (stereo partly drawn), the TGI in experiment [1], in experiment [2], in [3], in experiment [4], in [5] and in [6] was over 100 µM throughout. Further, the TGI in experiment [7] is over 100 µM; in [8] it was over 100 µM; in [9], over 100 µM; in experiment [11], over 100 µM; in experiment [12] it was 50.4 µM.
With `Cc1ccc(-n2cc([Si](C)(C)C)nn2)s1`, the TGI in experiment [1], in experiment [2], in experiment [3], in experiment [5], in experiment [6] and in experiment [8] was over 100 µM each time. In addition, the TGI in experiment [9], in experiment [10], in [11] and in experiment [12] was over 100 µM each time.
With `Cc1ccc(N=C2C(=Nc3ccc(C)cc3)N(c3ccc(C)cc3)C(=S)N2C(=O)c2ccccc2)cc1`, the TGI in experiment [1], in experiment [2], in [4], in experiment [5], in experiment [6] and in experiment [7] was over 100 µM throughout. Also, the TGI in [8], in [9], in [10], in experiment [11] and in experiment [12] was over 100 µM in each case.
As for `CCOc1ccc2c(c1)c(=O)c1c(NCCN(CC)CC)ccc3nnn2c31`, the TGI in experiment [1] is 48.2 µM; in experiment [3], over 59.6 µM; in experiment [4] it was 37.1 µM; in experiment [5], over 100 µM; in experiment [6] it was over 100 µM; in [7] it was over 59.9 µM. The TGI in experiment [8] was over 49 µM; in experiment [9] it was 35.7 µM; in [10] it was over 54.8 µM; in experiment [11], over 57.8 µM; in [12], over 68.7 µM.
As for `COc1ccc(C2=NN=C3C(c4ccccc4)=Nc4ccccc4N3C2)cc1`, the TGI is over 100 µM in [1]; 49.8 µM in experiment [2]; over 100 µM in [3]; over 100 µM in [4]; over 100 µM in experiment [5]; 33.4 µM in experiment [7]. The TGI in experiment [8] was over 100 µM; in experiment [9], over 100 µM; in experiment [10] it was over 100 µM; in experiment [11], over 100 µM; in experiment [12], 85 µM.
Turning to `CC(=O)OC1COC(Nc2nc(N)n(C)c(=O)c2N=O)C(OC(C)=O)C1OC(C)=O` (stereo not drawn), the TGI in experiment [3], in [4], in [5], in [6], in [7] and in experiment [8] was over 10 µM each time. The TGI in experiment [9], in experiment [10], in [11] and in experiment [12] was over 10 µM in each case.
